{"source": "the NIST ThermoML archive (doi:10.1021/je201193d)", "conditions": "Crystal; visual observation", "note": "Numbers after ± are expanded uncertainties."}
{"smiles": "CCC(=O)O", "note": "[propanoic acid]", "values": [{"measurement": "Normal melting temperature", "result": "-20.60 ± 0.39", "unit": "°C"}]}
{"smiles": "C=CC(=O)O", "note": "[propenoic acid]", "values": [{"measurement": "Normal melting temperature", "result": "12.8 ± 0.39", "unit": "°C"}]}
